Assay results published in ChEMBL document CHEMBL5257089, “Gamabufotalin Induces Apoptosis and Cytoprotective Autophagy through the mTOR Signaling Pathway in Hepatocellular Carcinoma” (J Nat Prod, 2023).
Active and inactive are the calls of the source. The rule behind the calls is not given here.

How the values were obtained:
[1] = system: Huh-7; experiment: Induction of autophagic flux in human Huh-7 cells assessed as rescue of LC3-I accumulation at 10 uM incubated for 48 hrs in presence of gamabufotalin by Western blot analysis; format: functional, cell-based
[2] = system: Hep 3B2; experiment: Induction of apoptosis in human Hep3B cells assessed as late apoptotic cells at 10 nM incubated for 48 hrs by Annexin V-FITC/PI staining based flow cytometry method (reference value: 3.5%); format: functional
[3] = system: Hep 3B2; experiment: Induction of apoptosis in human Hep3B cells assessed as increase in caspase-3 level at 10 nM incubated for 48 hrs in presence of gamabufotalin by immunoblot analysis; format: functional, cell-based
[4] = system: Huh-7; experiment: Induction of apoptosis in human Huh-7 cells assessed as decrease in bcl-2 level at 10 nM incubated for 48 hrs in presence of gamabufotalin by immunoblot analysis; format: functional, cell-based
[5] = system: Hep 3B2; experiment: Induction of autophagic flux in human Hep3B cells harbouring mCherry-egfp-LC3 assessed as reduction in number of yellow puncta ratio at 10 nM incubated for 15 mins in presence of gamabufotalin by laser scanning confocal microscopic analysis; format: functional, cell-based
[6] = system: Huh-7; experiment: Induction of autophagic flux in human Huh-7 cells harbouring mCherry-egfp-LC3 assessed as reduction in number of red puncta ratio at 10 nM incubated for 15 mins in presence of gamabufotalin by laser scanning confocal microscopic analysis; format: functional, cell-based
[7] = system: Huh-7; experiment: Antiproliferative activity against human Huh-7 cells assessed as cell viability incubated for 24 hrs by CCK-8; format: functional, cell-based; conditions: Huh-7, 24 h
[8] = system: Hep 3B2; experiment: Induction of apoptosis in human Hep3B cells assessed as viable cells at 25 nM incubated for 48 hrs by Annexin V-FITC/PI staining based flow cytometry method (reference value: 93.3%); format: functional; conditions: read-out: Activity
[9] = system: Huh-7; experiment: Induction of apoptosis in human Huh-7 cells assessed as late apoptotic cells at 20 nM incubated for 48 hrs by Annexin V-FITC/PI staining based flow cytometry method (reference value: 2.2%); format: functional
[10] = system: Huh-7; experiment: Induction of apoptosis in human Huh-7 cells assessed as necrotic cells at 20 nM incubated for 48 hrs by Annexin V-FITC/PI staining based flow cytometry method (reference value: 0.7%); format: functional
[11] = system: Hep 3B2; experiment: Induction of apoptosis in human Hep3B cells assessed as fragmented nuclei at […] incubated for 48 hrs by Hoechst33258 staining based fluorescence microscopy; format: functional, cell-based
[12] = system: Hep 3B2; experiment: Induction of apoptosis in human Hep3B cells assessed as late apoptotic cells at 25 nM measured after 48 hrs by annexin V-FITC/Propidium iodide staining based flow cytometric analysis (reference value: 2.4%); format: functional
[13] = system: Hep 3B2; experiment: Induction of apoptosis in human Hep3B cells assessed as late apoptotic cells at 25 nM measured after 48 hrs in presence of Z-VAD-FMK by annexin V-FITC/Propidium iodide staining based flow cytometric analysis (reference value: 2.4%); format: functional
[14] = system: Huh-7; experiment: Induction of apoptosis in human Huh-7 cells assessed as viable cells at 25 nM measured after 48 hrs in presence of z-VAD-FMK by annexin V-FITC/Propidium iodide staining based flow cytometric analysis (reference value: 91.7%); format: functional; conditions: read-out: Activity
[15] = system: Huh-7; experiment: Induction of autophagic flux in human Huh-7 cells harbouring mCherry-egfp-LC3 assessed as increase in red puncta at 25 nM incubated for 15 mins by laser scanning confocal microscopic analysis; format: functional, cell-based
[16] = system: Huh-7; experiment: Induction of autophagic flux in human Huh-7 cells assessed as increase in LC3-II expression at upto 25 nM incubated for 48 hrs by Western blot analysis; format: functional, cell-based
[17] = system: Huh-7; experiment: Induction of autophagic flux in human Huh-7 cells assessed as decrease in p62 expression at upto 25 nM incubated for 48 hrs by Western blot analysis; format: functional, cell-based
[18] = system: Hep 3B2; experiment: Induction of apoptosis in human Hep3B cells assessed as early apoptotic cells at 25 nM incubated for 48 hrs by Annexin V-FITC/PI staining based flow cytometry method (reference value: 1.3%); format: functional
[19] = system: Hep 3B2; experiment: Induction of apoptosis in human Hep3B cells assessed as viable cells at 25 nM incubated for 48 hrs in presence of chloroquine by Annexin V-FITC/PI staining based flow cytometry method (reference value: 94.0%); format: functional; conditions: read-out: Activity
[20] = system: Hep 3B2; experiment: Induction of apoptosis in human Hep3B cells assessed as late apoptotic cells at 25 nM incubated for 48 hrs in presence of chloroquine by Annexin V-FITC/PI staining based flow cytometry method (reference value: 3.5%); format: functional
[21] = system: Hep 3B2; experiment: Induction of apoptosis in human Hep3B cells assessed as necrotic cells at 25 nM incubated for 48 hrs in presence of chloroquine by Annexin V-FITC/PI staining based flow cytometry method (reference value: 1.2%); format: functional
[22] = system: Huh-7; experiment: Induction of apoptosis in human Huh-7 cells assessed as late apoptotic cells at 25 nM incubated for 48 hrs by Annexin V-FITC/PI staining based flow cytometry method (reference value: 4.7%); format: functional
[23] = system: Huh-7; experiment: Induction of apoptosis in human Huh-7 cells assessed as necrotic cells at 25 nM incubated for 48 hrs in presence of chloroquine by Annexin V-FITC/PI staining based flow cytometry method (reference value: 1.0%); format: functional
[24] = system: Hep 3B2; experiment: Induction of apoptosis in human Hep3B cells assessed as early apoptotic cells at 25 nM measured after 48 hrs by Annexin V-FITC/PI staining based flow cytometry method (reference value: 1.3%); format: functional
[25] = system: Huh-7; experiment: Induction of apoptosis in human Huh-7 cells assessed as early apoptotic cells at 25 nM incubated for 48 hrs in presence of 4,6-dimorpholino-N-(4-nitrophenyl)-1,3,5-triazin-2-amine by Annexin V-FITC/PI staining based flow cytometry method (reference value: 4.3%); format: functional
[26] = system: Huh-7; experiment: Induction of apoptosis in human Huh-7 cells assessed as late apoptotic cells at 25 nM incubated for 48 hrs in presence of 4,6-dimorpholino-N-(4-nitrophenyl)-1,3,5-triazin-2-amine by Annexin V-FITC/PI staining based flow cytometry method (reference value: 3.8%); format: functional
[27] = system: Hep 3B2; experiment: Induction of apoptosis in human Hep3B cells assessed as reduction in bcl-2 level […] incubated for 48 hrs in presence of 4,6-dimorpholino-N-(4-nitrophenyl)-1,3,5-triazin-2-amine by immunoblot analysis; format: functional, cell-based
[28] = system: Huh-7; experiment: Induction of autophagy in human Huh-7 cells assessed as reduction in ULK1 phosphorylation level incubated for 48 hrs by immunoblot method; format: functional, cell-based; conditions: dose 0-25 nM
[29] = system: Huh-7; experiment: Induction of autophagy in human Huh-7 cells assessed as reduction in autophagic vesicles at 25 nM incubated for 48 hrs in presence of 4,6-dimorpholino-N-(4-nitrophenyl)-1,3,5-triazin-2-amine by transmission electron microscopy based analysis; format: functional, cell-based
[30] = system: Hep 3B2; experiment: Induction of autophagic flux in human Hep3B cells harbouring mCherry-egfp-LC3 assessed as reduction in number of yellow puncta ratio at 25 nM incubated for 15 mins in presence of chloroquine by laser scanning confocal microscopic analysis; format: functional, cell-based
[31] = system: Hep 3B2; experiment: Antitumor activity against human Hep3B cells xenografted in nude mouse model assessed as downregulation of P62 expression at 5 mg/kg,ip administered every second day for 3 weeks by Western blot analysis; format: functional, organism-based
[32] = Toxicity in mouse assessed as effect on serum AST level at 5 mg/kg,ip administered every second day for 3 weeks by H and E staining based microscopic method; format: organism-based; conditions: in vivo, 504 h

CCN(CC)CCCC(C)Nc1ccnc2cc(Cl)ccc12 (configuration not stated) [CHLOROQUINE]
Activity [1]: Active
Activity [2]: 4.4%
Activity [3]: Active
Activity [4]: Active
Activity [5]: Active
Activity [6]: Active

C[C@]12CC[C@H](O)C[C@H]1CC[C@@H]1[C@@H]2[C@H](O)C[C@]2(C)[C@@H](c3ccc(=O)oc3)CC[C@]12O [GAMABUFOTALIN]
IC50 [7]: 23 nM
viability at 0.025 µM [8]: 84.9%
Activity [9]: 28.8%
Activity [10]: 4.9%
Activity [11]: Active
Activity [12]: 13.2%
Activity [13]: 3.5%
viability at 0.025 µM [14]: 89%
Activity [15]: Active
Activity [16]: Active
Activity [17]: Active
Activity [18]: 14.3%
viability at 0.025 µM [19]: 63.9%
Activity [20]: 17.4%
Activity [21]: 0.8%
Activity [22]: 10.2%
Activity [23]: 3.4%
Activity [24]: 11.4%
Activity [25]: 14.9%
Activity [26]: 6.6%
Activity [27]: Active
Activity [28]: Dose-Dependent Effect
Activity [29]: Active
Activity [30]: Active
Activity [31]: Active
Activity [32]: Non-Toxic
